# Columns and labels:
# [1] = biological target: T1, Serine/threonine-protein kinase 17B (Homo sapiens, UniProt O94768); assay: Binding affinity to DRAK2 (unknown origin) ATP site
# T1 sequence (O94768 whole entry): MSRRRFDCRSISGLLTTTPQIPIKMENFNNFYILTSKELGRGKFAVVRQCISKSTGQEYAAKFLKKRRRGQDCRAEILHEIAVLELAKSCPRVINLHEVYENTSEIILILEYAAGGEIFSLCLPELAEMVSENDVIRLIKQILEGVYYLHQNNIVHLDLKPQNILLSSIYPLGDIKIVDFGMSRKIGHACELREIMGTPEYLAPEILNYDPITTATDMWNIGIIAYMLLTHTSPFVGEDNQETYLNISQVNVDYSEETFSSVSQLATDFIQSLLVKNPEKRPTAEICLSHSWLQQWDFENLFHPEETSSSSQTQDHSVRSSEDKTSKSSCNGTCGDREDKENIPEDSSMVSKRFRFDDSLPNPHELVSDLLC
# [2] = biological target: T1, Serine/threonine-protein kinase 17B; assay: Inhibition of DRAK2 (unknown origin) using 1 uM ATP by biochemical assay
# [3] = biological target: T1, Serine/threonine-protein kinase 17B; assay: Inhibition of DRAK2 (unknown origin) using 33P-ATP after 30 mins by Trilux scintillation counting
# [4] = biological target: T1, Serine/threonine-protein kinase 17B; assay: Inhibition of DRAK2 (unknown origin) using 50 uM ATP by biochemical assay
# [5] = biological target: T1, Serine/threonine-protein kinase 17B; assay: Inhibition of DRAK2 (unknown origin) using 5 uM ATP by biochemical assay
# [6] = biological target: T1, Serine/threonine-protein kinase 17B; assay: Inhibition of DRAK2 (unknown origin) using 250 uM ATP by biochemical assay
# [7] = biological target: T1, Serine/threonine-protein kinase 17B; assay: Inhibition of DRAK2 (unknown origin) using 25 uM ATP by biochemical assay
# [8] = biological target: T1, Serine/threonine-protein kinase 17B; assay: Inhibition of DRAK2 (unknown origin) using 500 uM ATP by biochemical assay
# [9] = biological target: T1, Serine/threonine-protein kinase 17B; assay: Inhibition of DRAK2 (unknown origin) using 100 uM ATP by biochemical assay
# [10] = biological target: T1, Serine/threonine-protein kinase 17B; assay: Inhibition of DRAK2 (unknown origin) using 10 uM ATP by biochemical assay
structure (smiles),measurement,setting,value
COc1cc(-c2cnc3snc(NC(=O)C4CCCCC4)c3c2)ccc1O,Kd,[1],2000 nM
COc1cc(-c2cnc3snc(NC(=O)C4CCCCC4)c3c2)ccc1N,Kd,[1],660 nM
Nc1cccc(-c2cnc3snc(NC(=O)C4CCCCC4)c3c2)c1,Kd,[1],2300 nM
O=C(Nc1nsc2ncc(-c3ccc(O)cc3)cc12)C1CCCCC1,Kd,[1],3200 nM
COc1ccc(-c2cnc3snc(NC(=O)C4CCCCC4)c3c2)cc1OC,Kd,[1],1600 nM
O=C(Nc1nsc2ncc(-c3cccs3)cc12)C1CCCCC1,Kd,[1],1900 nM
O=C(Nc1nsc2ncc(-c3ccsc3)cc12)C1CCCCC1,Kd,[1],1600 nM
COc1ccc(-c2cnc3snc(NC(=O)C4CCC4)c3c2)cc1OC,Kd,[1],1600 nM
COc1ccc(-c2cnc3snc(NC(=O)C4CCCC4)c3c2)cc1OC,Kd,[1],2200 nM
COc1ccc(-c2cnc3snc(NC(=O)C4CCCCCC4)c3c2)cc1OC,Kd,[1],530 nM
COc1ccc(-c2cnc3snc(NC(=O)C4CCNCC4)c3c2)cc1OC,Kd,[1],7200 nM
COc1ccc(-c2ccc3scc(NC(=O)C4CCCCC4)c3c2)cc1OC,Kd,[1],510 nM
COc1ccc(-c2cnc3scc(NC(=O)C4CCCCC4)c3c2)cc1OC,IC50,[2],370 nM
same,IC50,[3],860 nM
same,IC50,[4],720 nM
same,Kd,[1],9 nM
same,IC50,[5],510 nM
same,IC50,[6],1470 nM
same,IC50,[7],650 nM
same,IC50,[8],2220 nM
same,IC50,[9],990 nM
same,IC50,[10],530 nM
COc1ccc(-c2cnc3scc(NC(=O)C4CCCCC4)c3n2)cc1OC,IC50,[3],1780 nM
same,Kd,[1],27 nM
COc1ccc(-c2cnc3[nH]cc(NC(=O)C4CCCCC4)c3c2)cc1OC,Kd,[1],33 nM
COc1ccc(-c2ccc3snc(NC(=O)C4CCCCC4)c3c2)cc1OC,Kd,[1],2700 nM
COc1ccc(-c2ccc3onc(NC(=O)C4CCCCC4)c3c2)cc1OC,Kd,[1],960 nM
COc1ccc(-c2cnc3ncnc(NC(=O)C4CCCCC4)c3n2)cc1OC,Kd,[1],180 nM
